What was measured:
[1] = system: Erythrocyte; test: Hemolytic activity in human RBC incubated for 4 hrs by visual analysis; assay type: toxicity, cell-based
[2] = Induction of membrane disruption in eukaryotic inner membrane mimic EYPC vesicles assessed as carboxyfluorescein leakage at 10 ug/ml measured after 240 secs by fluorescence based assay; assay type: cell membranes; details: dose 10.0 µg/ml, time 240.0 sec

| SMILES | MHC [1] [µg/mL] | Activity [2] [%] |
| --- | --- | --- |
| CC(C)C[C@H](NC(=O)[C@H](CC(C)C)NC(=O)[C@@H](CCCCN)NC(=O)[C@H](CC(C)C)NC(=O)[C@H](CC(C)C)NC(=O)[C@@H](CCCCN)NC(=O)[C@@H](CC(C)C)NC(=O)[C@H](CC(C)C)NC(=O)[C@H](CCCCN)NC(=O)[C@@H](N)CCCCN)C(=O)N[C@H](CC(C)C)C(N)=O | > 2000 |  |
| CC(C)C[C@H](NC(=O)[C@H](CCCCN)NC(=O)[C@H](CC(C)C)NC(=O)[C@H](CC(C)C)NC(=O)[C@@H](CCCCN)NC(=O)[C@H](CC(C)C)NC(=O)[C@H](CC(C)C)NC(=O)[C@@H](CCCCN)NC(=O)[C@H](N)CCCCN)C(=O)N[C@@H](CC(C)C)C(=O)N[C@H](CC(C)C)C(N)=O | 1000 |  |
| CC(C)C[C@H](NC(=O)[C@H](CCCCN)NC(=O)[C@H](N)CCCCN)C(=O)N[C@@H](CC(C)C)C(=O)N[C@H](CCCCN)C(=O)N[C@H](CC(C)C)C(=O)N[C@H](CC(C)C)C(=O)N[C@@H](CCCCN)C(=O)N[C@@H](CC(C)C)C(=O)N[C@@H](CC(C)C)C(=O)N[C@H](CC(C)C)C(N)=O | 1000 | 3 |
| CC(C)C[C@H](NC(=O)[C@H](CC(C)C)NC(=O)[C@H](CC(C)C)NC(=O)[C@@H](CCCCN)NC(=O)[C@@H](CC(C)C)NC(=O)[C@@H](CC(C)C)NC(=O)[C@@H](CCCCN)NC(=O)[C@H](CC(C)C)NC(=O)[C@H](CC(C)C)NC(=O)[C@H](CCCCN)NC(=O)[C@@H](N)CCCCN)C(N)=O | 1000 |  |
| CC(C)C[C@H](NC(=O)[C@H](CC(C)C)NC(=O)[C@H](CC(C)C)NC(=O)[C@H](CCCCN)NC(=O)[C@@H](CC(C)C)NC(=O)[C@@H](CC(C)C)NC(=O)[C@H](CCCCN)NC(=O)[C@@H](CC(C)C)NC(=O)[C@@H](CC(C)C)NC(=O)[C@H](CCCCN)NC(=O)[C@@H](N)CCCCN)C(N)=O | 1000 |  |
| CC(C)C[C@H](NC(=O)[C@H](CC(C)C)NC(=O)[C@@H](CC(C)C)NC(=O)[C@H](CCCCN)NC(=O)[C@@H](CC(C)C)NC(=O)[C@@H](CC(C)C)NC(=O)[C@H](CCCCN)NC(=O)[C@@H](CC(C)C)NC(=O)[C@@H](CC(C)C)NC(=O)[C@H](CCCCN)NC(=O)[C@@H](N)CCCCN)C(N)=O | > 2000 | 4 |
| CC(C)C[C@H](NC(=O)[C@H](CC(C)C)NC(=O)[C@@H](CC(C)C)NC(=O)[C@H](CCCCN)NC(=O)[C@H](CC(C)C)NC(=O)[C@@H](CC(C)C)NC(=O)[C@H](CCCCN)NC(=O)[C@H](CC(C)C)NC(=O)[C@@H](CC(C)C)NC(=O)[C@@H](CCCCN)NC(=O)[C@@H](N)CCCCN)C(N)=O | > 2000 |  |
| CC(C)C[C@H](NC(=O)[C@H](CC(C)C)NC(=O)[C@H](CC(C)C)NC(=O)[C@H](CCCCN)NC(=O)[C@@H](CC(C)C)NC(=O)[C@@H](CC(C)C)NC(=O)[C@@H](CCCCN)NC(=O)[C@H](CC(C)C)NC(=O)[C@H](CC(C)C)NC(=O)[C@H](CCCCN)NC(=O)[C@@H](N)CCCCN)C(N)=O | 31.3 |  |
| CC(C)C[C@H](NC(=O)[C@H](CC(C)C)NC(=O)[C@H](CC(C)C)NC(=O)[C@H](CCCCN)NC(=O)[C@H](CC(C)C)NC(=O)[C@@H](CC(C)C)NC(=O)[C@H](CCCCN)NC(=O)[C@@H](CC(C)C)NC(=O)[C@@H](CC(C)C)NC(=O)[C@@H](CCCCN)NC(=O)[C@@H](N)CCCCN)C(N)=O | 250 |  |
| CC(C)C[C@H](NC(=O)[C@H](CC(C)C)NC(=O)[C@@H](CCCCN)NC(=O)[C@H](CC(C)C)NC(=O)[C@H](CC(C)C)NC(=O)[C@@H](CCCCN)NC(=O)[C@H](N)CCCCN)C(=O)N[C@@H](CCCCN)C(=O)N[C@@H](CC(C)C)C(=O)N[C@H](CC(C)C)C(=O)N[C@H](CC(C)C)C(N)=O | > 2000 |  |
| CC(C)C[C@H](NC(=O)[C@H](CC(C)C)NC(=O)[C@H](CC(C)C)NC(=O)[C@H](CCCCN)NC(=O)[C@H](CC(C)C)NC(=O)[C@H](CC(C)C)NC(=O)[C@@H](CCCCN)NC(=O)[C@H](CC(C)C)NC(=O)[C@H](CC(C)C)NC(=O)[C@@H](CCCCN)NC(=O)[C@H](N)CCCCN)C(N)=O | < 15.6 |  |
| CC(C)C[C@@H](NC(=O)[C@@H](CC(C)C)NC(=O)[C@@H](CC(C)C)NC(=O)[C@@H](CCCCN)NC(=O)[C@@H](CC(C)C)NC(=O)[C@@H](CC(C)C)NC(=O)[C@@H](CCCCN)NC(=O)[C@@H](CC(C)C)NC(=O)[C@@H](CC(C)C)NC(=O)[C@@H](CCCCN)NC(=O)[C@H](N)CCCCN)C(N)=O | 125 |  |
| CC(C)C[C@H](NC(=O)[C@H](CC(C)C)NC(=O)[C@H](CC(C)C)NC(=O)[C@@H](CCCCN)NC(=O)[C@H](CC(C)C)NC(=O)[C@H](CC(C)C)NC(=O)[C@@H](CCCCN)NC(=O)[C@H](CC(C)C)NC(=O)[C@H](CC(C)C)NC(=O)[C@@H](CCCCN)NC(=O)[C@H](N)CCCCN)C(N)=O | 1000 |  |
| CC(C)CC(NC(=O)C(CC(C)C)NC(=O)C(CC(C)C)NC(=O)C(CCCCN)NC(=O)C(CC(C)C)NC(=O)C(CC(C)C)NC(=O)C(CCCCN)NC(=O)C(CC(C)C)NC(=O)C(CC(C)C)NC(=O)C(CCCCN)NC(=O)C(N)CCCCN)C(N)=O (racemic) | 1000 |  |
| CC(C)C[C@H](NC(=O)[C@@H](CC(C)C)NC(=O)[C@H](CCCCN)NC(=O)[C@@H](CC(C)C)NC(=O)[C@H](CC(C)C)NC(=O)[C@@H](CCCCN)NC(=O)[C@H](CC(C)C)NC(=O)[C@@H](CC(C)C)NC(=O)[C@H](CCCCN)NC(=O)[C@H](N)CCCCN)C(=O)N[C@H](CC(C)C)C(N)=O | > 2000 |  |
| CC(C)C[C@H](NC(=O)[C@H](CC(C)C)NC(=O)[C@H](CC(C)C)NC(=O)[C@H](CCCCN)NC(=O)[C@@H](CC(C)C)NC(=O)[C@@H](CC(C)C)NC(=O)[C@H](CCCCN)NC(=O)[C@H](CC(C)C)NC(=O)[C@H](CC(C)C)NC(=O)[C@H](CCCCN)NC(=O)[C@@H](N)CCCCN)C(N)=O | 500 |  |
| CC(C)C[C@H](NC(=O)[C@H](CCCCN)NC(=O)[C@H](CC(C)C)NC(=O)[C@H](CC(C)C)NC(=O)[C@@H](CCCCN)NC(=O)[C@H](N)CCCCN)C(=O)N[C@@H](CC(C)C)C(=O)N[C@@H](CCCCN)C(=O)N[C@@H](CC(C)C)C(=O)N[C@H](CC(C)C)C(=O)N[C@H](CC(C)C)C(N)=O | 1000 |  |
| CC(C)C[C@H](NC(=O)[C@H](CC(C)C)NC(=O)[C@@H](CCCCN)NC(=O)[C@H](CC(C)C)NC(=O)[C@H](CC(C)C)NC(=O)[C@@H](CCCCN)NC(=O)[C@H](CC(C)C)NC(=O)[C@H](CC(C)C)NC(=O)[C@@H](CCCCN)NC(=O)[C@H](N)CCCCN)C(=O)N[C@H](CC(C)C)C(N)=O | > 2000 |  |
| CC(C)C[C@H](NC(=O)[C@@H](CC(C)C)NC(=O)[C@H](CC(C)C)NC(=O)[C@@H](CCCCN)NC(=O)[C@H](CC(C)C)NC(=O)[C@@H](CC(C)C)NC(=O)[C@H](CCCCN)NC(=O)[C@@H](CC(C)C)NC(=O)[C@H](CC(C)C)NC(=O)[C@@H](CCCCN)NC(=O)[C@@H](N)CCCCN)C(N)=O | > 2000 |  |
| CC(C)C[C@H](NC(=O)[C@@H](CC(C)C)NC(=O)[C@H](CC(C)C)NC(=O)[C@H](CCCCN)NC(=O)[C@@H](CC(C)C)NC(=O)[C@H](CC(C)C)NC(=O)[C@H](CCCCN)NC(=O)[C@@H](CC(C)C)NC(=O)[C@@H](CC(C)C)NC(=O)[C@H](CCCCN)NC(=O)[C@@H](N)CCCCN)C(N)=O | > 2000 |  |
| CC(C)C[C@H](NC(=O)[C@H](CC(C)C)NC(=O)[C@H](CC(C)C)NC(=O)[C@H](CCCCN)NC(=O)[C@@H](CC(C)C)NC(=O)[C@@H](CC(C)C)NC(=O)[C@H](CCCCN)NC(=O)[C@@H](CC(C)C)NC(=O)[C@@H](CC(C)C)NC(=O)[C@@H](CCCCN)NC(=O)[C@@H](N)CCCCN)C(N)=O | 250 |  |
| CC(C)CC(NC(=O)C(CC(C)C)NC(=O)C(CC(C)C)NC(=O)C(CCCCN)NC(=O)C(CC(C)C)NC(=O)[C@H](CC(C)C)NC(=O)C(CCCCN)NC(=O)C(CC(C)C)NC(=O)C(CC(C)C)NC(=O)C(CCCCN)NC(=O)C(N)CCCCN)C(N)=O (some centres not stated) | 2000 |  |
| CC(C)C[C@H](NC(=O)[C@H](CC(C)C)NC(=O)[C@@H](CC(C)C)NC(=O)[C@H](CCCCN)NC(=O)[C@@H](CC(C)C)NC(=O)[C@H](CC(C)C)NC(=O)[C@@H](CCCCN)NC(=O)[C@H](CC(C)C)NC(=O)[C@@H](CC(C)C)NC(=O)[C@H](CCCCN)NC(=O)[C@@H](N)CCCCN)C(N)=O | > 2000 | 3 |
| CC(C)C[C@H](NC(=O)[C@@H](CC(C)C)NC(=O)[C@@H](CC(C)C)NC(=O)[C@H](CCCCN)NC(=O)[C@H](CC(C)C)NC(=O)[C@H](CC(C)C)NC(=O)[C@H](CCCCN)NC(=O)[C@H](CC(C)C)NC(=O)[C@@H](CC(C)C)NC(=O)[C@@H](CCCCN)NC(=O)[C@@H](N)CCCCN)C(N)=O | 1000 |  |
| CC(C)C[C@H](NC(=O)[C@H](CC(C)C)NC(=O)[C@@H](CC(C)C)NC(=O)[C@@H](CCCCN)NC(=O)[C@H](CC(C)C)NC(=O)[C@H](CC(C)C)NC(=O)[C@@H](CCCCN)NC(=O)[C@@H](CC(C)C)NC(=O)[C@H](CC(C)C)NC(=O)[C@H](CCCCN)NC(=O)[C@@H](N)CCCCN)C(N)=O | 125 | 2 |
| CC(C)C[C@H](NC(=O)[C@H](CC(C)C)NC(=O)[C@@H](CC(C)C)NC(=O)[C@@H](CCCCN)NC(=O)[C@H](CC(C)C)NC(=O)[C@H](CC(C)C)NC(=O)[C@H](CCCCN)NC(=O)[C@@H](CC(C)C)NC(=O)[C@@H](CC(C)C)NC(=O)[C@H](CCCCN)NC(=O)[C@@H](N)CCCCN)C(N)=O | 1000 |  |
| CC(C)C[C@H](NC(=O)[C@H](CC(C)C)NC(=O)[C@H](CC(C)C)NC(=O)[C@@H](CCCCN)NC(=O)[C@@H](CC(C)C)NC(=O)[C@@H](CC(C)C)NC(=O)[C@@H](CCCCN)NC(=O)[C@@H](CC(C)C)NC(=O)[C@H](CC(C)C)NC(=O)[C@H](CCCCN)NC(=O)[C@@H](N)CCCCN)C(N)=O | 250 |  |
| CC(C)C[C@H](NC(=O)[C@H](CC(C)C)NC(=O)[C@H](CC(C)C)NC(=O)[C@H](CCCCN)NC(=O)[C@H](CC(C)C)NC(=O)[C@H](CC(C)C)NC(=O)[C@@H](CCCCN)NC(=O)[C@H](CC(C)C)NC(=O)[C@H](CC(C)C)NC(=O)[C@@H](CCCCN)NC(=O)[C@@H](N)CCCCN)C(N)=O | < 15.6 |  |

From ChEMBL document CHEMBL5338802, “To Fold or Not to Fold: Diastereomeric Optimization of an α-Helical Antimicrobial Peptide” (J Med Chem, 2023)
